Data: patent publication US12226459B2, “Collagen hydrolysate for use in prevention and/or treatment of post intensive care syndrome (pics)” (ROUSSELOT B.V., priority 2022, dated 2025)

Test system: PICS mouse model
Experiment: PICS score in PICS mouse model (sepsis/ICU-care model)
Format: in vivo
Conditions: follow-up study; fluoxetine 20 mg/kg, whey protein 1.8 g/kg, daily oral gavage; in contrast to collagen hydrolysate
Procedure: A validated PICS mouse model was used, which is based on the model of Hujinami et al. (J Clin Med. 2021 April; 10(8): 1593.). The model is proven to induce PICS by mimicking ICU care following polymicrobial sepsis. This is achieved by intraperitoneal injection with cecal slurry followed by other typical ICU-related interventions (i.e. antibiotics and saline administration) for 72 h. The model incorporates a specific combination of physical (grip strength test), mental (anxiety level), and cognitive (discrimination index, habituation index, exploration time) parameters that often characterize PICS.
The development of PICS in the model was first confirmed in a pilot study (not shown herein). The mice develop PICS after ˜1 week.
The mice (C57BL6J, Charles River laboratories, France) receive collagen hydrolysate (“CH”, Peptan, Porcine ˜1800 Da, Rousselot B. V.) or the relevant controls according to the following experimental groups: • 1. No PICS+vehicle (saline), i.e. “Control” • 2. PICS+vehicle (saline), i.e. “PICS” • 3. PICS+CH 1.8 g/kg (˜10 g clinical dose), i.e. “PICS+low dose CH” • 4. PICS+CH 8 g/kg (˜44 g clinical dose), i.e. “PICS+high dose CH”
The mice are administered once a day from day 12 through day 47.
Treatment is started 4 days after the induction of PICS. The CH or vehicle is administered by daily oral gavage for a duration of […] (day 12-47). […]

With `CNCCC(Oc1ccc(C(F)(F)F)cc1)c1ccccc1` (stereo not shown) [fluoxetine] the “improvement in PICS score” value was “little/no improvement”.
